Experimental findings from patent publication US10472356B2, “Bicyclic ketone sulfonamide compounds” (AMGEN INC., priority 2015, dated 2019) are described below.

Assay [1] addresses T1, human Nav1.7 (Homo sapiens, UniProt Q15858).
T1 construct: expressed in transfected cells; host or cells: HEK293
Nature of the assay: Nav 1.7 In Vitro PatchXpress (PX) Assay. In kind it is cell-based. To be noted: HEK 293 cells stably transfected with human Nav1.7; PatchXpress whole cell voltage clamp; partially inactivated state (holding potential yielding 20 to 50% inactivation); read-out: hNav1.7 PX IC50. The gist of the method: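 Whole-cell voltage clamp on HEK 293 cells stably expressing human Nav1.7 (automated patch), holding potential giving 20–50% inactivation; 20 ms pulses to −10 mV at 0.1 Hz. Single compound concentration applied 3 min, peak current inhibition measured; IC50 fitted from 3–5 cells per concentration.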

Assay [2] concerns the target T1, human Nav1.7. Nature of the assay: Nav 1.7 IWB In Vitro Assay (IonWorks Barracuda). In kind it is cell-based. To be noted: HEK293 cells stably transfected with human Nav 1.7; IonWorks Barracuda population patch-clamp; cells clamped to −20 mV for 4 minutes with compound; 26th pulse; read-out: hNav1.7 IWB IC50. In outline:
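Population patch clamp of HEK293 cells stably expressing human Nav 1.7: 26 pulses to −20 mV (150 ms, 5 Hz) from −110 mV, then 4 min at −20 mV with compound, 3 s recovery at −110 mV and the train repeated. % inhibition of 26th-pulse peak current vs no compound; IC50 from concentration-response curves.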

T1 sequence (Q15858 whole entry): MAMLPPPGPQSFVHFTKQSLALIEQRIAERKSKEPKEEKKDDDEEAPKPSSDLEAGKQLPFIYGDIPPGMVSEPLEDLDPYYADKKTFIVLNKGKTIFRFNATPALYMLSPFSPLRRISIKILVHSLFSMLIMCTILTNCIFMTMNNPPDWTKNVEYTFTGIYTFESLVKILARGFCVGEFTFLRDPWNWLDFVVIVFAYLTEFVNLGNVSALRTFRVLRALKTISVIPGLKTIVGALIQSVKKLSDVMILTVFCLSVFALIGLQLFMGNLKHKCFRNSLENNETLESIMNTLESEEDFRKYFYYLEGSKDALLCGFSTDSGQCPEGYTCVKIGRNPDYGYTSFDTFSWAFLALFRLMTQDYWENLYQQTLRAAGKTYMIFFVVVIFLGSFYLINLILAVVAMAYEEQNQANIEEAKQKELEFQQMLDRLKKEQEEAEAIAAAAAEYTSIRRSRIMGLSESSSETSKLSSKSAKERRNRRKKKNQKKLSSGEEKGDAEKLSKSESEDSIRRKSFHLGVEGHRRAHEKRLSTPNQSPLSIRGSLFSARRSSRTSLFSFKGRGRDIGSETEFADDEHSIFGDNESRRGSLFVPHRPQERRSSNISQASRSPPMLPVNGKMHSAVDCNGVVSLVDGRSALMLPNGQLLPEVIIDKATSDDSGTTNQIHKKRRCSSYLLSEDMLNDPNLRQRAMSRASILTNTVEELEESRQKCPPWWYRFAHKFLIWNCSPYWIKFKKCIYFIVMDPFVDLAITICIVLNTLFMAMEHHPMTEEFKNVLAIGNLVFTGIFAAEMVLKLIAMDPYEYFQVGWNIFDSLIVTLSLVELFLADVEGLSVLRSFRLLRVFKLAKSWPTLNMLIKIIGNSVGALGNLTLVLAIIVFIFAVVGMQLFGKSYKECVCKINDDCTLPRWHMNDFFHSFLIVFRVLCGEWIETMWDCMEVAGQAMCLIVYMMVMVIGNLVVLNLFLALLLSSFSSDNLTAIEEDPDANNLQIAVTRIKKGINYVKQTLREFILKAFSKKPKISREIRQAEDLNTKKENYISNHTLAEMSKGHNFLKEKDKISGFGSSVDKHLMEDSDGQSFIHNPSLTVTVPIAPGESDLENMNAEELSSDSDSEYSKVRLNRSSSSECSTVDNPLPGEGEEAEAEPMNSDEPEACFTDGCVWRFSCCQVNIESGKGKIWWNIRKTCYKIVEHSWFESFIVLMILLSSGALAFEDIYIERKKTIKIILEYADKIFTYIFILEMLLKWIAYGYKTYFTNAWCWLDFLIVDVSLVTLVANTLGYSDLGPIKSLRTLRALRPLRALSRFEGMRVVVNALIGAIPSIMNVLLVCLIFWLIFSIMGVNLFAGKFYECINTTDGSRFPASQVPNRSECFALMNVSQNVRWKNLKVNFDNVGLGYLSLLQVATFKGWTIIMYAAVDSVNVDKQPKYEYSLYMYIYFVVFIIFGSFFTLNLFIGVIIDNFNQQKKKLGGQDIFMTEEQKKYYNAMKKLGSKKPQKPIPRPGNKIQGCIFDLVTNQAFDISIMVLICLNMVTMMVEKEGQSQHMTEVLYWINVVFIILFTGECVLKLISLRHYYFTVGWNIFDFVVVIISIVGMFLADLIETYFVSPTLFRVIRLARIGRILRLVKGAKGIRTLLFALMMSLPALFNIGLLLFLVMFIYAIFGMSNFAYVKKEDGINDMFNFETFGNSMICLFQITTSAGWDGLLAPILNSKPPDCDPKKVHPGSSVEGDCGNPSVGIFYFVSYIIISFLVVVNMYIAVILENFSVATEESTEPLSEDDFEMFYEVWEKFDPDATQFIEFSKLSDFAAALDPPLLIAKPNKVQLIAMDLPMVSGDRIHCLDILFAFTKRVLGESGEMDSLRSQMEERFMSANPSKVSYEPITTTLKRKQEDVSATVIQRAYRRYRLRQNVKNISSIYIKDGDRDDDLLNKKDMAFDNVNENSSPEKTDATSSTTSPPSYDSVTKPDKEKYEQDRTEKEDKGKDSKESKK

The IC50 is the midpoint of a concentration-inhibition curve. On to `COc1cc(-c2ccc(C)c(F)c2)c(F)cc1-n1c2c(ccc1=O)CN(S(=O)(=O)Nc1ccon1)CC2` (single isomer, unassigned) [Example 21-M, M-1-(2,3′-difluoro-5-methoxy-4′-methyl-4-biphenylyl)-N-3-isoxazolyl-2-oxo-1,5,7,8-tetrahydro-1,6-naphthyridine-6(2H)-sulfonamide], for which the IC50 in assay [1] came out at 4940 nM; in assay [2], 1550 nM.

`COc1cc(-c2cc(F)cc(F)c2)c(F)cc1-n1c2c(ccc1=O)[C@@H](C)N(S(=O)(=O)Nc1ccon1)CC2` [Example 3-A-P, P-(5R)-N-3-isoxazolyl-5-methyl-2-oxo-1-(2,3′,5′-trifluoro-5-methoxy-4-biphenylyl)-1,5,7,8-tetrahydro-1,6-naphthyridine-6(2H)-sulfonamide]: the IC50 in assay [1] was over 1000 nM; in assay [2], 1200 nM.

Turning to `COc1cc(-c2cc(C(F)(F)F)cnc2OC)c(F)cc1-n1c2c(ccc1=O)CN(S(=O)(=O)Nc1cccnn1)CC2` [Example 64, P-1-(5-fluoro-2-methoxy-4-(2-methoxy-5-(trifluoromethyl)pyridin-3-yl)phenyl)-2-oxo-N-(pyridazin-3-yl)-1,2,7,8-tetrahydro-1,6-naphthyridine-6(5H)-sulfonamide], the IC50 in assay [1] amounted to 66.1 nM; in assay [2] it was 1.9 nM.

Turning to `COc1cc(-c2cc(F)cc(F)c2)c(F)cc1-n1c2c(ccc1=O)[C@H](C)N(S(=O)(=O)Nc1ccon1)CC2` [Example 3-B-M, M-(5S)-N-3-isoxazolyl-5-methyl-2-oxo-1-(2,3′,5′-trifluoro-5-methoxy-4-biphenylyl)-1,5,7,8-tetrahydro-1,6-naphthyridine-6(2H)-sulfonamide], the IC50 is over 1000 nM in assay [1] and over 30000 nM in assay [2].

Regarding `COc1cc(-c2cc(C)ccc2Cl)c(F)cc1-n1c2c(ccc1=O)CN(S(=O)(=O)Nc1cccnn1)CC2` [Example 43, P-1-(2′-chloro-2-fluoro-5-methoxy-5′-methyl-4-biphenylyl)-2-oxo-N-3-pyridazinyl-1,5,7,8-tetrahydro-1,6-naphthyridine-6(2H)-sulfonamide], the IC50 in assay [1] was 156 nM; in assay [2] it was 3.8 nM.

On to `COc1cc(-c2ccc(F)c(F)c2)c(F)cc1-n1c2c(ccc1=O)CN(S(=O)(=O)Nc1ccon1)CC2` (single isomer, unassigned) [Example 20-M, M-N-3-isoxazolyl-2-oxo-1-(2,3′,4′-trifluoro-5-methoxy-4-biphenylyl)-1,5,7,8-tetrahydro-1,6-naphthyridine-6(2H)-sulfonamide], for which the figures for the half-maximal inhibitory concentration (IC50) in assay [1] and in assay [2] were over 30000 nM and 2670 nM, respectively.

Take `COc1cc(Cl)cc(-c2cc(OC)c(-n3c4c(ccc3=O)CN(S(=O)(=O)Nc3cccnn3)CC4)cc2F)c1` [Example 70, P-1-(3′-chloro-2-fluoro-5,5′-dimethoxy-[1,1′-biphenyl]-4-yl)-2-oxo-N-(pyridazin-3-yl)-1,2,7,8-tetrahydro-1,6-naphthyridine-6(5H)-sulfonamide]: the IC50 amounted to 20 nM in assay [1] and 6.2 nM in assay [2].

For the molecule `COc1cc(-c2cc(F)cc(F)c2)c(F)cc1-n1c2c(ccc1=O)CN(S(=O)(=O)Nc1ncc(F)cn1)CC2` (racemic) [Example 10-(Rac), (Rac)-N-(5-fluoro-2-pyrimidinyl)-2-oxo-1-(2,3′,5′-trifluoro-5-methoxy-4-biphenylyl)-1,5,7,8-tetrahydro-1,6-naphthyridine-6(2H)-sulfonamide], the IC50 stood at 2280 nM in assay [1] and 163 nM in assay [2].

Regarding `COc1cc(-c2cc(OC)c(-n3c4c(ccc3=O)CN(S(=O)(=O)Nc3ccon3)CC4)cc2Cl)ccc1Cl` [Example 52, P-1-(2,4′-dichloro-3′,5-dimethoxy-4-biphenylyl)-N-3-isoxazolyl-2-oxo-1,5,7,8-tetrahydro-1,6-naphthyridine-6(2H)-sulfonamide], the IC50 stood at 22.9 nM in assay [1] and 2.8 nM in assay [2].

Regarding `COc1cc(-c2cc(F)cc(F)c2)c(F)cc1-n1c2c(ccc1=O)CN(S(=O)(=O)Nc1ccon1)[C@@H](C)C2` (single isomer, unassigned) [Example 3-C-P], the IC50 in assay [1] is over 1000 nM; in assay [2], over 30000 nM.

Consider `COc1cc(-c2cc(F)cc(F)c2)c(F)cc1-n1c2c(ccc1=O)CN(S(=O)(=O)Nc1ccon1)[C@H](C)C2` [Example 3-D-M, M-(7R)-N-3-isoxazolyl-7-methyl-2-oxo-1-(2,3′,5′-trifluoro-5-methoxy-4-biphenylyl)-1,5,7,8-tetrahydro-1,6-naphthyridine-6(2H)-sulfonamide], for which the figures for the IC50 in assay [1] and in assay [2] were over 1000 nM and over 7500 nM, respectively.

`COc1cc(-c2cccc(Cl)c2OC)c(F)cc1-n1c2c(ccc1=O)CN(S(=O)(=O)Nc1cccnn1)CC2` [Example 65, P-1-(3′-chloro-2-fluoro-2′,5-dimethoxy-[1,1′-biphenyl]-4-yl)-2-oxo-N-(pyridazin-3-yl)-1,2,7,8-tetrahydro-1,6-naphthyridine-6(5H)-sulfonamide]: the half-maximal inhibitory concentration (IC50) amounted to 251 nM in assay [1] and 8.5 nM in assay [2].

As to `COc1cc(-c2ccc(F)c(F)c2)c(F)cc1-n1c2c(ccc1=O)CN(S(=O)(=O)Nc1ncccn1)CC2` (single isomer, unassigned) [Example 28-M, M-2-oxo-N-2-pyrimidinyl-1-(2,3′,4′-trifluoro-5-methoxy-4-biphenylyl)-1,5,7,8-tetrahydro-1,6-naphthyridine-6(2H)-sulfonamide], the IC50 was over 30000 nM in assay [1] and over 10000 nM in assay [2].

Take `COc1cc(-c2cc(Cl)ccc2C)c(F)cc1-n1c2c(ccc1=O)CN(S(=O)(=O)Nc1ccon1)CC2` (single isomer, unassigned) [Example 9-M, M-1-(5′-chloro-2-fluoro-5-methoxy-2′-methyl-4-biphenylyl)-N-3-isoxazolyl-2-oxo-1,5,7,8-tetrahydro-1,6-naphthyridine-6(2H)-sulfonamide]: the IC50 in assay [1] worked out at 772 nM; in assay [2] it was 55 nM.

Consider `COc1cc(-c2ccc(Cl)c(C)c2)c(F)cc1-n1c2c(ccc1=O)CN(S(=O)(=O)Nc1ncccn1)CC2` (racemic) [Example 30, (Rac)-1-(4′-chloro-2-fluoro-5-methoxy-3′-methyl-4-biphenylyl)-2-oxo-N-2-pyrimidinyl-1,5,7,8-tetrahydro-1,6-naphthyridine-6(2H)-sulfonamide], for which the results for the IC50 in assay [1] and in assay [2] were 993 nM and 44.3 nM, respectively.

With `COc1cc(-c2cc(F)cc(Cl)c2)c(F)cc1-n1c2c(ccc1=O)CN(S(=O)(=O)Nc1cccc(F)n1)CC2` (single isomer, unassigned) [Example 13-M, M-1-(3′-chloro-2,5′-difluoro-5-methoxy-4-biphenylyl)-N-(6-fluoro-2-pyridinyl)-2-oxo-1,5,7,8-tetrahydro-1,6-naphthyridine-6(2H)-sulfonamide], the IC50 in assay [1] was found to be 7550 nM; in assay [2], 983 nM.

In the case of `COc1cc(-c2cc(F)cc(C(F)(F)F)c2)c(F)cc1-n1c2c(ccc1=O)CN(S(=O)(=O)Nc1cccnn1)CC2` [Example 41, P-1-(2,3′-difluoro-5-methoxy-5′-(trifluoromethyl)-4-biphenylyl)-2-oxo-N-3-pyridazinyl-1,5,7,8-tetrahydro-1,6-naphthyridine-6(2H)-sulfonamide], the IC50 in assay [1] was 33 nM; in assay [2], 1.8 nM.

As to `COc1cc(-c2cccc(C(F)(F)F)c2)c(Cl)cc1-n1c2c(ccc1=O)CN(S(=O)(=O)Nc1cccnn1)CC2` (single isomer, unassigned) [Example 91-M, M-1-(2-chloro-5-methoxy-3′-(trifluoromethyl)-[1,1′-biphenyl]-4-yl)-2-oxo-N-(pyridazin-3-yl)-1,2,7,8-tetrahydro-1,6-naphthyridine-6(5H)-sulfonamide], the figures for the half-maximal inhibitory concentration (IC50) in assay [1] and in assay [2] were 681 nM and 154 nM, respectively.

As to `COc1cc(-c2cc(F)cc(Cl)c2)c(F)cc1-n1c2c(ccc1=O)CN(S(=O)(=O)Nc1ccccn1)CC2` (single isomer, unassigned) [Example 11-M, M-1-(3′-chloro-2,5′-difluoro-5-methoxy-4-biphenylyl)-2-oxo-N-2-pyridinyl-1,5,7,8-tetrahydro-1,6-naphthyridine-6(2H)-sulfonamide], the IC50 in assay [1] stood at 4500 nM; in assay [2], 849 nM.

In the case of `COc1cc(-c2ccc(F)c(C)c2)c(Cl)cc1-n1c2c(ccc1=O)CN(S(=O)(=O)Nc1cccnn1)CC2` (racemic) [Example 92-(Rac), (Rac)-1-(2-chloro-4′-fluoro-5-methoxy-3′-methyl-[1,1′-biphenyl]-4-yl)-2-oxo-N-(pyridazin-3-yl)-1,2,7,8-tetrahydro-1,6-naphthyridine-6(5H)-sulfonamide], the values for the IC50 in assay [1] and in assay [2] were 63.5 nM and 23.6 nM, respectively.

Regarding `COc1cc(OC(F)(F)F)cc(-c2cc(OC)c(-n3c4c(ccc3=O)CN(S(=O)(=O)Nc3cccnn3)CC4)cc2F)c1` [Example 76, P-1-(2-fluoro-3′,5-dimethoxy-5′-(trifluoromethoxy)-[1,1′-biphenyl]-4-yl)-2-oxo-N-(pyridazin-3-yl)-1,2,7,8-tetrahydro-1,6-naphthyridine-6(5H)-sulfonamide], the IC50 in assay [1] came to 38.8 nM; in assay [2], 4.2 nM.

For `COc1cc(-c2ccc(F)c(C)c2)c(F)cc1-n1c2c(ccc1=O)CN(S(=O)(=O)Nc1ncccn1)CC2` (single isomer, unassigned) [Example 29-M, M-1-(2,4′-difluoro-5-methoxy-3′-methyl-4-biphenylyl)-2-oxo-N-2-pyrimidinyl-1,5,7,8-tetrahydro-1,6-naphthyridine-6(2H)-sulfonamide], the IC50 was over 30000 nM in assay [1] and over 2500 nM in assay [2].
